US20070191493A1, “Use of n-alkanols as activators of the cftr channel” (priority 2003, published 2007)

Columns and labels:
[1] = target: T1, CFTR channel (Homo sapiens, UniProt P13569); experiment: 125I radioactive iodide efflux in CHO-CFTR(+) cells; format: cell-based; set-up: expressed in transfected cells; host or cells: CHO (Chinese hamster ovary) cells, CHO-CFTR(+); details: for activation of CFTR (125I efflux), in words: n-alkanols 1 mM, FSK 1 μM, A23187 2 μM, α-GA 10 and 100 μM; for order of activation of CFTR by n-alkanols: 1 mM, 125I efflux or patch-clamp; for effect of inhibitor on activated 125I efflux: CHO-CFTR(+) cells stimulated by octan-1-ol 1 mM, FSK 1 μM or both, glibenclamide 100 μM, H-89 30 μM, PKC inhibitor
T1 sequence (P13569 whole entry): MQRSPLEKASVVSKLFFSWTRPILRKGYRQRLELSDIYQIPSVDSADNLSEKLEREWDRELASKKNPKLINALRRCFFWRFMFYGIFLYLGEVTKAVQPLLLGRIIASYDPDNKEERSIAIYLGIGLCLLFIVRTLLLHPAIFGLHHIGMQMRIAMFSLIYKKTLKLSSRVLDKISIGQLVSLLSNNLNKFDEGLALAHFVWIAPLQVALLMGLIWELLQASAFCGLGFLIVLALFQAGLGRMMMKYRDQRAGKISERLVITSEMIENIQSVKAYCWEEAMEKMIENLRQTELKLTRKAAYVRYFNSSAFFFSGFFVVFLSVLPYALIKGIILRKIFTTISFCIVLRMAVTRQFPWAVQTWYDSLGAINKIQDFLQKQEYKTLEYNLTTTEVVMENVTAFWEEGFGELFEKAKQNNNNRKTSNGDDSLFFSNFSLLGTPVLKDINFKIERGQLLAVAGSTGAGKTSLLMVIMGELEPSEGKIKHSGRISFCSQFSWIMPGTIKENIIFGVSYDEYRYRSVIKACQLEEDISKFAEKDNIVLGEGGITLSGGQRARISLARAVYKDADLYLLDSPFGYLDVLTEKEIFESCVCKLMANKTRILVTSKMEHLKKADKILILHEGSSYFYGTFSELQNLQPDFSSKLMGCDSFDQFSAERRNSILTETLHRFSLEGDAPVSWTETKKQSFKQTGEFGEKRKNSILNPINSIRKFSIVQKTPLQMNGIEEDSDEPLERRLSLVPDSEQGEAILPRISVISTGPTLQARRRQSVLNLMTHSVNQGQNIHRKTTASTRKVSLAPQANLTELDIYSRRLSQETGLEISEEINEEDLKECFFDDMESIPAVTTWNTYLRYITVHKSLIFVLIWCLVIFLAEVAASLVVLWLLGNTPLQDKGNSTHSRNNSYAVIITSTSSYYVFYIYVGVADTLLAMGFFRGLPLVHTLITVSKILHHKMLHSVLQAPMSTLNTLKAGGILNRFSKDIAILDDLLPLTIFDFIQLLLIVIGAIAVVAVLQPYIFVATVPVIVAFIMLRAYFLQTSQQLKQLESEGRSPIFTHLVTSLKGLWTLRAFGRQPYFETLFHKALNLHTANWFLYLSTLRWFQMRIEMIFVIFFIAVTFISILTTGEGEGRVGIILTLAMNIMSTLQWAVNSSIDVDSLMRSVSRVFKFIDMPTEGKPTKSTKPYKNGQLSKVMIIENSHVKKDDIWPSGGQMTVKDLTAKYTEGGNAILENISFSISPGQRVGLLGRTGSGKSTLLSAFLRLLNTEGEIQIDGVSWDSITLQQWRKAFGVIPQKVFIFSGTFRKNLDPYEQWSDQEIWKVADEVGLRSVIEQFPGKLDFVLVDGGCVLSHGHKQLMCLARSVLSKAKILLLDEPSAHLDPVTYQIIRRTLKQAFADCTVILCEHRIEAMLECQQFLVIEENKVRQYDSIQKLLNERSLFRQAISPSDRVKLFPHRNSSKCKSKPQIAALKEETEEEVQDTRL
Method: The cells are cultured in 24-well plates with a dilution to 1/10 after passage. […] The operation is repeated every 30 s for 2 to 6 min. […] All the samples are counted in a gamma counter (Kontron). The precipitated proteins are solubilized in 0.1N NaOH and quantified using a calorimetric test.
(§1) The tracer contained in the cell layer at the beginning of the efflux is calculated as the sum of the samples and of the extracts counted. The efflux curves are constructed by expressing the percentage of the content remaining in the cell layer (I %) with respect to time. The stimulated or nonstimulated efflux rate constants (k, min^−1) are determined by smoothing the efflux curves to a monoexponential function I %=100*exp(−kt) using a linear regression of the neperian logarithm of the data, k is used to calculate the iodide released into the medium with respect to time. The hypothesis is made that, in the presence of a stimulator, the efflux is the sum of two iodide effluxes occurring in parallel: a basal efflux and a stimulated efflux characterized, respectively, by the constants kb and ks. The total net efflux is then described by the equation It^%=100*(1−exp(−ktt)) where kt is the sum of kb and ks. Finally, ks calculated as kt−kb is used to establish a dose-response relationship for antagonists. The data is expressed as means ±SD, and the t-test is used to determine the significances. The concentration-response curves for agonists or for antagonists are smooth using the hyperbolic equation Y=Ymax*X/(EC5C+X), where Y is the response. Y begins at the basal level and progresses to the plateau (Ymax), X is the concentration and the half-effect values (EC are calculated using GraphPad Prism v3.0 (GraphPad software)).

[2] = test system: intracellular cAMP level; experiment: total intracellular cAMP assay in CHO-CFTR(+) cells; format: cell-based, Chinese hamster; details: 5 min, FSK 1 or 5 μM, alcohols 1 mM
Method: The CHO cells are cultured for four days in a 24-well culture plate. On the fourth day of culture, each well is rinsed twice with 500 μl of medium B, and 500 μl of this buffer containing the molecule to be tested are added to each well. After incubation at 37° C. for 5 min, the reaction is stopped by adding a cell lysis buffer. The cell lysis is verified with Trypan blue. The amount of cAMP contained in the cells is determined using the Enzyme Immuno Assay kit (Amersham Biotechnology). The cAMP level is expressed in pmol/well ±SD.

[3] = target: T2, ΔF508 mutated CFTR channel (Homo sapiens, UniProt P13569, DEL508-508); experiment: iodide efflux in JME/CF15 human bronchial epithelial cells from cystic fibrosis patients; format: cell-based; details: glibenclamide 100 μM, DIDS 500 μM
T2 construct: epithelial cells extracted from respiratory airways of patients suffering from cystic fibrosis (homozygous ΔF508); endogenous in cells; host or cells: JME/CF15 human airway epithelial cells (homozygous ΔF508)
T2 sequence (P13569 with tags, fused parts or gaps DEL508-508): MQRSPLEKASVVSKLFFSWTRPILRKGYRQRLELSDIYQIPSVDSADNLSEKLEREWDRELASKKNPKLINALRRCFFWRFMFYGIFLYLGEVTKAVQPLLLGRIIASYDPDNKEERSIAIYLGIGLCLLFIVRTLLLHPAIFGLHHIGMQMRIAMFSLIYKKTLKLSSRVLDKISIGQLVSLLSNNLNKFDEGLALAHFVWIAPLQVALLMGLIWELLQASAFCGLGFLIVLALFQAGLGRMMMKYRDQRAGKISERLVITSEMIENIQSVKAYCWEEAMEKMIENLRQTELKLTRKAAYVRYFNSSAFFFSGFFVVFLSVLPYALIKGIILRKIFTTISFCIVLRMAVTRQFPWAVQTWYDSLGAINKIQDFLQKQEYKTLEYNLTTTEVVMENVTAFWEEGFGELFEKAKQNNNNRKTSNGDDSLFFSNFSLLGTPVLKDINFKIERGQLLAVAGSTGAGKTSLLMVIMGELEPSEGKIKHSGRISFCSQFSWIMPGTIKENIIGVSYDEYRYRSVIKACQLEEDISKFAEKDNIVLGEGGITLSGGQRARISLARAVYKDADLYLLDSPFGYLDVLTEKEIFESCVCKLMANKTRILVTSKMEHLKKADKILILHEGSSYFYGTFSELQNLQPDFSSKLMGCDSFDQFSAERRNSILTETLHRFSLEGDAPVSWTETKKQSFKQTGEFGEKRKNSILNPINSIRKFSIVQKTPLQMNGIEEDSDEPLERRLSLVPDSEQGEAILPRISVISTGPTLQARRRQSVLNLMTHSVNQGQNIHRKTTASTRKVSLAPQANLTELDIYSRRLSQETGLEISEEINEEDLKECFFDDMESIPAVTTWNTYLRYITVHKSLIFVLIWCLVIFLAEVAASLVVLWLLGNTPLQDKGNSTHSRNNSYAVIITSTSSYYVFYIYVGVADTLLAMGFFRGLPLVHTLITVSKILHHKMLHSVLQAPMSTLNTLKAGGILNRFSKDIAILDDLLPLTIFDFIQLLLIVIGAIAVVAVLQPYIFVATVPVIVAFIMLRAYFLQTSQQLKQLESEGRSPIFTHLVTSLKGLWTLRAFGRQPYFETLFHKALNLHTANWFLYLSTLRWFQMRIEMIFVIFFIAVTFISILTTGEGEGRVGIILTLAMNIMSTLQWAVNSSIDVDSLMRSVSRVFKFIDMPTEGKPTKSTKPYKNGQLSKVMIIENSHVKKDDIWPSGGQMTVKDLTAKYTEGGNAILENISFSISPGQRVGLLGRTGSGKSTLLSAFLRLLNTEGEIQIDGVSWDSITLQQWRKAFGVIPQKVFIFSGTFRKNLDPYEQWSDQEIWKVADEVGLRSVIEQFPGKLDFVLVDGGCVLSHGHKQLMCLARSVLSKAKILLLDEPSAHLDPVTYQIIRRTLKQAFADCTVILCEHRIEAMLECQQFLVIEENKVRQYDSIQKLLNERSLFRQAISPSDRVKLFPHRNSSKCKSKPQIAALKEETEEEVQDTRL
Method: (§2) The CFTR studies are also carried out on Calu-3 cells (ATCC No. HTB-55), which are human pulmonary epithelial cells endogenously expressing the CFTR channel. These cells are cultured under the same culture conditions as the CHO cells. The study of the mutated CFTR channel is carried out on JME/CF15 cells, which are epithelial cells extracted from respiratory airways of patients suffering from cystic fibrosis (homozygous ΔF508) (Jefferson et al., 1990). These cells therefore express the ΔF508 mutated CFTR channel. These cells are cultured under the same conditions as above, but the culture medium is supplemented with a hormone mixture containing: adenine (180 μM), insulin (5 μg/ml), transferrin (5 μg/ml), hydrocortisone (1.1 μM), triiodothyronine (2 nM), epinephrine (5.5 μM), epidermal growth factor (1.64 nM).
(§3) This technique makes it possible to follow the kinetics of exit of the ^125I radioactive iodide. The cells are cultured in 24-well plates with a dilution to 1/10 after passage. On the fourth day of culture, the drugs to be tested are dissolved in solution according to the desired concentration, at 37° C., in medium B, at pH 7.4, containing, in mM: 137 NaCl, 5.36 KCl, 0.8 mM MgCl2, 1.8 mM CaCl2, 5.5 glucose and 10 HEPES-NaOH. The wells are washed 4 times with 500 μl of medium B. The solution is subsequently replaced with 500 μl of loading solution containing 1 μM KI and 0.5 μCi of ^125INa/ml for 30 min. The kinetics of exit of ^125I are determined after having eliminated the loading solution and washed the wells 4 times with 500 μl of medium B. For the ^125I exit kinetics, 500 μl of medium B containing or not containing the molecules to be tested are incubated for 30 sec in the wells and recovered in a hemolysis tube, so as to be replaced with 500 μl of medium B containing or not containing the molecules to be tested. The operation is repeated every 30 s for 2 to 6 min. At the end of the efflux, the intracellular ions are extracted by adding 1 ml of trichloroacetic acid (7.5%) to the cell layer. All the samples are counted in a gamma counter (Kontron). The precipitated proteins are solubilized in 0.1N NaOH and quantified using a calorimetric test.
as §1, with “The concentration-response curves for agonists or for antagonists are smooth using the hyperbolic equation Y=Ymax*X/(EC5C+X), where Y is the response.” left out

[4] = target: T3, human CFTR channel endogenously expressed in Calu-3 (Homo sapiens, UniProt P13569); experiment: iodide efflux in Calu-3 human bronchial epithelial cells; format: cell-based; details: Calu-3; 1 hour treatment; glibenclamide 100 μM, DIDS 500 μM
T3 construct: human pulmonary epithelial cells endogenously expressing the CFTR channel; host or cells: Calu-3 human pulmonary epithelial cells
T3 sequence (P13569 whole entry): as the sequence (P13569 whole entry) above
Method: as §2, §3
as §1, with “The concentration-response curves for agonists or for antagonists are smooth using the hyperbolic equation Y=Ymax*X/(EC5C+X), where Y is the response.” left out

[5] = test system: CHO-CFTR(-) cells; experiment: 125I iodide efflux in CHO-CFTR(-) control cells that do not express CFTR; format: cell-based, Chinese hamster; details: octan-1-ol 0.1 to 5 mM, FSK 5 μM, A23187 2 μM
[6] = target: T1, CFTR channel; experiment: whole-cell patch-clamp in CHO-CFTR(+) cells; format: cell-based; set-up: expressed in transfected cells; host or cells: CHO (Chinese hamster ovary) cells, CHO-CFTR(+); details: glibenclamide 100 μM
From the text: The patch-clamp technique consists in applying a glass pipette or a glass microelectrode to the surface of the cell. By applying slight touch, it is possible to cause the membrane to adhere to the glass. A small piece of membrane (patch) is thus isolated at the end of the pipette. This is the principle of patch-clamp (O. P. Hamill et al., Pflügers Arch., 1981, 391, 85-100; R. Penner, A Practical Guide to Patch Clamping, 1995, In Single Channel Recording, 2nd edition (Eds. B. Sakmann et al.) Plenum Press, New York, 3-30). To do this, the patch-clamp pipette must have a tip of the order of 1 μm in diameter and a resistance of the order of 1-5 MΩ. The resistance of a pipette or of a microelectrode makes it possible to assess the fineness of the tip: the greater the resistance, the finer the tip or the more the electrode is blocked. […] Interactions between the membrane and the glass will form, aided by a slight suction or negative pressure in the pipette. The quality of this interaction (or sealing) is also assessed by measuring the resistance between the glass and the membrane. To measure overall currents in the whole cell configuration, a sealing resistance of 1 GΩ is sufficient.
More specifically, culture dishes (cell support) are placed in an experimentation cell (volume 1 ml) on the platform of an inverted microscope (Nikon) equipped with phase-contrast lighting. The whole-cell configuration is used for recording the cell currents (Hamill et al., 1981). The experiments are carried out at ambient temperature (20-22° C.). The currents are amplified with an Axopatch 200B amplifier (Axon Instrument Ltd) having a 2-5 kHz low-pass filter (Bessel 6-pole filter), and recorded on the hard disk of a PC after digitization at 10-25 kHz. The pipettes are produced from glass tubes 1 mm in diameter (Clark Electromedical Instrument) in four steps with a horizontal drawing device (Bruwn Flaming 97, CA).
The pipettes, filled with an intracellular solution containing, in mM: 60 KCl; 80 NMDG ([…]); 10 HEPES; 5 EGTA; 1 CaCl2; 4 MgATP; 0.2 Na3GTP; pH 7.4, titrated with KOH), having a resistance of 5 MΩ. The potentials are expressed as the difference between the potential of the patch electrode and that of the bath. In the whole-cell configuration, they represent the membrane potential of the cell. The junction potentials that form between the recording electrode and the extracellular medium are eliminated before the contact of the electrode with the cell. […] The current-voltage relationships in the stationary state are determined using slow voltage ramps (20 mV/.s) under an imposed voltage condition. […]

Molecule | activation of CFTR (125I efflux), in words ([1]; CHO-CFTR(+) cells) | order of activation of CFTR by n-alkanols [1] | also measured
C=C[C@@]1(C)CC(=O)[C@]2(O)[C@@]3(C)[C@@H](O)CCC(C)(C)[C@@H]3[C@H](O)[C@H](OC(C)=O)[C@@]2(C)O1 [FSK, forskolin, reference compound] |  |  | EC50 ([1]; EC50 of activation of CFTR (125I efflux rate constant), CHO-CFTR(+) cells, FSK 0.1 to 5 μM): ~500 nM
CO [methanol, reference compound] | not significantly different from the unstimulated efflux |  | 
CCCCCCO [hexan-1-ol] | significantly activates the CFTR channel | hexan-1-ol<heptan-1-ol<octan-1-ol<octan-2-ol<decan-1-ol | effect on intracellular cAMP level [2]: neither octan-1-ol, hexan-1-ol or ethanol modifies the basal cAMP level
butan-1-ol [reference compound] | not significantly different from the unstimulated efflux |  | activation of CFTR (125I efflux), in words ([1]; CHO-CFTR(+) cells, listed as butanol): do not activate the CFTR channel
O=S(=O)(O)c1cc(N=C=S)ccc1C=Cc1ccc(N=C=S)cc1S(=O)(=O)O [DIDS, 4,4′-diisothiocyanatostilbene-2,2′-disulfonic acid, reference compound] |  |  | effect of inhibitor on CFTR-ΔF508 activation by octan-1-ol [3]: insensitive; effect of inhibitor on octan-1-ol-activated efflux [4]: has no effect
O=S(=O)(NCCNC/C=C/c1ccc(Br)cc1)c1cccc2cnccc12 [H-89, reference compound] |  |  | effect of inhibitor on activated 125I efflux [1]: inhibited
CNc1ccc2oc(C[C@H]3O[C@@]4(CC[C@H]3C)O[C@H]([C@H](C)C(=O)c3ccc[nH]3)[C@H](C)C[C@H]4C)nc2c1C(=O)O [A23187, reference compound] | has no effect |  | effect on basal level of 125I efflux in cells not expressing CFTR [5]: has no effect
CCCCCCCO [heptan-1-ol] | increase in activation of CFTR | hexan-1-ol<heptan-1-ol<octan-1-ol<octan-2-ol<decan-1-ol | 
COc1ccc(Cl)cc1C(=O)NCCc1ccc(S(=O)(=O)NC(=O)NC2CCCCC2)cc1 [glibenclamide, reference compound] |  |  | effect of inhibitor on CFTR-ΔF508 activation by octan-1-ol [3]: inhibited; effect of glibenclamide on FSK- or octan-1-ol-induced current [6]: completely inhibited; effect of inhibitor on activated 125I efflux [1]: completely inhibited; effect of inhibitor on octan-1-ol-activated efflux [4]: strongly blocked

Continued, in another order:

activation of CFTR (125I efflux), in words ([1]; CHO-CFTR(+) cells) | Molecule | order of activation of CFTR by n-alkanols [1] | also measured
do not activate the CFTR channel | CCO [ethanol, reference compound] |  | effect on intracellular cAMP level [2]: neither octan-1-ol, hexan-1-ol or ethanol modifies the basal cAMP level
significantly activates the CFTR channel | CCCCCCCCCCO [decan-1-ol] | hexan-1-ol<heptan-1-ol<octan-1-ol<octan-2-ol<decan-1-ol | 
also activates the CFTR protein | CCCCCCC(C)O (stereo not drawn) [octan-2-ol] | hexan-1-ol<heptan-1-ol<octan-1-ol<octan-2-ol<decan-1-ol | 
